Several values for one entry are separate records, joined by “and”; a condition that tells them apart may be missing. Equal entries are not always repeated. Where two headings read alike, the source gives them in different places.
What was measured:
[1] = Toxicity in beagle dogs, 10-min i.v. infusion; format: in vivo, beagle dog
Procedure: (§1) dEpoB at doses of 2, 6, 12 and 20 mg/kg, were given to male beagle dogs (11.2-14 kg) via i.v. infusion. The infusion volume was 1 ml/kg for 10 min using the Harvard PHD2000 pump (Harvard Apparatus). dEpoB was formulated in Cremophor 3%, ethanol 3%, propyleneglycol 40% and 5% glucose 54%. The animal was pretreated at −30 min with Benadryl 5 mg/kg, i.v.; cimetidine 5 mg/kg i.m.; and dexamethasone 1 mg/kg, i.e. to minimize allergic reactions due to Cremophor administration.
At 12 mg/kg. […] The body-weight slowly recovered in 2-3 weeks. […] There was a gross abnormality (reddish discoloration) of the intestinal mucosa from duodenum to the ileum. The small intestines contained blood tinged mucinous materials. […] Necrosis of intestinal mucosal epithelium with crypt cells most severely affected at this lethal dose.

[2] = Pharmacokinetics in beagle dogs; format: in vivo; details: male, dog, plasma, intravenous, 6 mg/kg, 10-min i.v. infusion
Procedure: as §1
Pharmacokinetic studies were also carried out for of dEpoB in beagle dogs at 6 mg/kg (120 mg/m^2 body surface), with 10-min i.v. infusion. Serial blood samples were collected in 5 ml heparinized tubes intermittently from-15 min to 24 hours. Plasma concentrations of dEpoB were determined by HPLC as described in methods.
Human blood plasma or nude mice plasma (300 μl) containing dEpoB (0.05-20 μg/ml) was added 30 μl of methanol and mixed for 2 min and then added 300 μl of methanol. The centrifuge supernatant was used for high performance liquid chromatography (HPLC). Nova-pak C18 column (15 cm) was used, with 50% acetonitrile/water with 0.8% triethylamine and 0.2% phosphoric acid as mobile phase. UV absorbance at 250 nm was measured.

[3] = system: Human lung carcinoma A549 cells; details: A549 cells exposed to IC50-IC90: VBL 14.3 months, paclitaxel and adriamycin 21.3 months, dEpoB 21.4 months
Text: Repeated exposure of human lung carcinoma A549 cells to sublethal concentrations of antitumor agents may lead to the development of drug resistance.
Every several weeks, cells were harvested for the dose-effect analysis to determine their folds of resistance (using SRB protein staining assay) based on comparing the IC50 value with the IC50 value of the untreated parent cells. Trypsinized/washed cells were used for propagating the cell lineage.

[4] = Stability in plasma in vitro (HPLC); format: in vitro ADME, dog; details: 5 μg/mL, 37 degree
Procedure: Stability of dEpoF in animal plasmas. A HPLC method is set up using a NovaPak C 18, 3.9×300 mm column with a mobile phase of 50% acetonitrile in 50 mM potassium dihydrogen phosphate with 0.01% triethylamine at a flow rate of 0.8 ml/min. dEpoF is monitored at a wavelength of 260 nm and has a retention time of about 10 min. The plasma stability is performed with mouse plasma and dog plasma purchased from Pel-Freeze and human plasma from the blood center in MSKCC. A small amount of dEpoF was dissolved in 50% methanol/water at a concentration of 500 μg/mL. An aliquot of 20 μL is then spiked to 2 mL of plasma to a final plasma concentration of 5 μg/mL. The plasma samples were kept at 37 degree. At the time point, 200 μL of the plasma was removed and added to 400 μL of methanol to precipitate the plasma protein. Twenty μL of the supernatant was analyzed by HPLC without further modification. dEpoF disappears rapidly with half life about one hour in the commercial frozen mouse plasma alone, but stable in dog and human plasma.

**Q.** What does the source list for `C/C1=C/C[C@@H](/C(C)=C/c2csc(C)n2)OC(=O)C[C@H](O)C(C)(C)C(=O)[C@H](C)[C@@H](O)[C@@H](C)CCC1` [dEpoB, 12,13-desoxyepothilone B]?
**A.** clinical signs ([1]; 12 mg/kg): moderate diarrhea (without blood); decrease in white blood cell (WBC) counts ([1]; 12 mg/kg): 13%; drop in body-weight on day 3 ([1]; 12 mg/kg): 1.3 kg; histopathology of 28 organs or tissues ([1]; 12 mg/kg): No significant histopathologic lesions; platelet counts, ALT, AST ([1]; 12 mg/kg): No significant changes; WBC on day 3 ([1]; 20 mg/kg): 0.6 k/μl; body-weight loss on day 2 ([1]; 20 mg/kg): 0.9 kg; body-weight loss on day 3 ([1]; 20 mg/kg): 3.6 kg; increase in ALT and AST by day 4 ([1]; 20 mg/kg): 3-6 fold; lethality ([1]; 20 mg/kg): expired on day 4; clinical signs on day 2 ([1]; 20 mg/kg i.v.): severe bloody diarrhea and dehydration; toxicity ([1]; 2 or 6 mg/kg (40 and 120 mg/m^2)): No significant toxicity; concentration at 24 hr ([2]; read-out: plasma concentration at the end of 24-hr collection): 45 ng/mL and 92 nM; half-life ([2]; read-out: α-phase t1/2 (converted)): 1.9 h; half-life ([2]; read-out: β-phase t1/2 (converted)): 21 h; fold resistance developed to the drug after repeated exposure [3]: 21 fold

**Q.** With `C/C1=C/C[C@@H](/C(C)=C/c2csc(CO)n2)OC(=O)C[C@H](O)C(C)(C)C(=O)[C@H](C)[C@@H](O)[C@@H](C)CCC1` [dEpoF, 12,13-Desoxyepothilone F] as the molecule, how does the “stability in dog plasma” value [4] read?
**A.** stable

From patent publication US6867305B2, “Synthesis of epothilones, intermediates thereto and analogues thereof” (Sloan-Kettering Institute for Cancer Research, priority 1996, dated 2005)
